36 molecules from patent US8334313B2, “Ureido substituted benzoic acid compounds and their use for nonsense suppression and the treatment of disease” (PTC Therapeutics, Inc., priority 2002, dated 2012) can be followed below.

SMILES strings stand for the structures.

This assay relates to luciferase reporter construct containing a UGA premature termination codon. Briefly: cell-based luciferase reporter assay (nonsense suppression / readthrough). Set-up: key: *****: both extremely high potency and extremely high efficacy of protein synthesis; ****: extremely high potency of protein synthesis and very high efficacy; ****: very high potency of protein synthesis and extremely high efficacy; ***: both very high potency and very high efficacy of protein synthesis; **: very high potency of protein synthesis and significant efficacy; **: significant potency of protein synthesis and very high efficacy; *: significant potency and efficacy of protein synthesis. As to conditions: ranking combining potency and efficacy of protein synthesis; UGA luciferase reporter stably transfected in 293T Human Embryonic Kidney cells. The procedure:
Activity measurements in Table I were performed in a cell-based luciferase reporter assay (as described in Section 4.2) comprising a luciferase reporter construct containing a UGA premature termination codon that was stably transfected in 293T Human Embryonic Kidney cells. A small molecule (3-[3-(4-Isopropyl-phenyl)-2,5-dioxoimidazolidin-1-yl]-benzoic acid) known to allow readthrough of premature termination codons, was used as an internal standard. Activity measurements are based on the qualitative relation between the minimum concentration of compound required to produce a given protein in a cell (potency) and the maximum amount of protein produced by the cell (efficacy). Potency and efficacy activities are ranked as either extremely high, very high or significant.
The test compounds identified in the nonsense suppression assay (for convenience referred to herein as a “lead” compound) can be tested for biological activity using host cells containing or engineered to contain the target RNA element coupled to a functional readout system. For example, the lead compound can be tested in a host cell engineered to contain the RNA with the premature translation termination codon controlling the expression of a reporter gene. In this example, the lead compounds are assayed in the presence or absence of the RNA with the premature translation termination codon. Compounds that modulate premature translation termination and/or nonsense-mediated mRNA decay in vivo will result in increased expression of the full-length gene, i.e., past the premature termination codon. Alternatively, a phenotypic or physiological readout can be used to assess activity of the target RNA with the premature translation termination codon in the presence and absence of the lead compound. Both the in vitro and in vivo nonsense suppression assays used herein and as described in International Patent Publication WO 01/44516, which is incorporated by reference in its entirety, can be used to identify lead compounds can also be used to determine an EC50 for the lead compounds.
A stable cell line harboring the […] nonsense-containing luciferase gene is treated with a test compound. Cells are grown in standard medium supplemented with 1% penicillin-streptomycin (P/S) and 10% fetal bovine serum (FBS) to 70% confluency and split 1:1 the day before treatment. The next day, cells are trypsinized and 40,000 cells are added to each well of a 96-well tissue culture dish. Serial dilutions of each compound are prepared to generate a six-point dose response curve spanning 2 logs ([…]). The final concentration of the DMSO solvent remains constant at 1% in each well. Cells treated with 1% DMSO serve as the background standard, and cells treated with gentamicin serve as a positive control.
In the case of `O=C(NCc1ccc(Br)cc1)Nc1cccc(C(=O)O)c1` [Compound 20, 3-[3-(4-bromo-benzyl)-ureido]-benzoic acid], the Activity result was “*”. To `O=C(NCc1ccc(Cl)cc1Cl)Nc1cccc(C(=O)O)c1` [Compound 21, 3-[3-(2,4-dichloro-benzyl)-ureido]-benzoic acid] belongs “*”; to `O=C(Nc1ccc(Br)cc1)Nc1cccc(C(=O)O)c1` [Compound 22, 3-[3-(4-bromo-phenyl)-ureido]-benzoic acid], “*”. Then `O=C(O)c1cccc(N2C(=O)CN(c3ccc(I)cc3)C2=O)c1` [Compound 23, 3-[3-(4-iodo-phenyl)-2,5-dioxo-imidazolidin-1-yl]-benzoic acid], with “***”. To `O=C(O)c1cccc(N2CC(=O)N(c3cccc(Cl)c3Cl)C2=O)c1` [Compound 24, 3-[3-(2,3-dichloro-phenyl)-2,4-dioxo-imidazolidin-1yl]-benzoic acid] belongs “*”; to `COC(=O)c1ccc(N2CC(=O)N(c3cccc(C(=O)O)c3)C2=O)cc1` [Compound 25, 3-[3-(4-methoxycarbonylphenyl)-2,5-dioxoimidazolidin-1-yl]-benzoic acid], “*”. Consider `Cc1ccc(N2CC(=O)N(c3cccc(C(=O)O)c3)C2=O)cc1` [Compound 26, 3-(2,5-Dioxo-3-p-tolylimidazolidin-1-yl)-benzoic acid], for which the Activity result is listed as “*”.

Consider `CCOc1ccc(N2CC(=O)N(c3cccc(C(=O)O)c3)C2=O)cc1` [Compound 27, 3-[3-(4-Ethoxy-phenyl)-2,5-dioxo-imidazolin-1-yl]-benzoic acid], for which the Activity result is given as “*”. Turning to `CC(C)(C)c1ccc(N2CC(=O)N(c3cccc(C(=O)O)c3)C2=O)cc1` [Compound 28, 3-[3-(4-tert-Butylphenyl)-2,5-dioxoimidazolidin-1-yl]-benzoic acid], the Activity result is “**”. To `O=C(O)c1cccc(N2C(=O)CN(c3ccc(Br)cc3)C2=O)c1` [Compound 29, 3-[3-(4-Bromo-phenyl)-2,5-dioxo-imidazolidin-1-yl]-benzoic acid] belongs “*”. `O=C(O)c1cccc(N2C(=O)CN(c3ccc(OC(F)(F)F)cc3)C2=O)c1` [Compound 30, 3-[2,5-Dioxo-3-(4-trifluoromethoxy-phenyl)-imidazolidin-1-yl]-benzoic acid]: the Activity entry is on record as “*”. Then `CC(C)(C)c1ccc(NC(=O)Nc2cccc(C(=O)O)c2)cc1` [Compound 33, 3-[3-(4-tert-Butylphenyl)-ureido]-benzoic acid], with “**”; and `CC(C)c1ccc(N2CCN(c3cccc(C(=O)O)c3)C2=O)cc1` [Compound 34, 3-[3-(4-Isopropyl-phenyl)-2-oxo-imidazolidin-1-yl]-benzoic acid], with “*****”. In the case of `CC(C)c1ccc(-n2ccn(-c3cccc(C(=O)O)c3)c2=O)cc1` [Compound 35, 3-[3-(4-Isopropyl-phenyl)-2-oxo-2,3-dihydro-imidazol-1-yl]-benzoic acid], the Activity result is “***”. `CC(C)c1cccc(N2CCN(c3cccc(C(=O)O)c3)C2=O)c1` [Compound 36, 3-[3-(3-Isopropyl-phenyl)-2-oxo-imidazolidin-1-yl]-benzoic acid]: the Activity entry is recorded as “****”. Then `CC(C)c1ccc(-n2ccn(-c3cccc(C(=O)O)c3)c2=S)cc1` [Compound 37, 3-[3-(4-Isopropyl-phenyl)-2-thioxo-2,3-dihydro-imidazol-1-yl]-benzoic acid], with “*”. As to `O=C(O)c1cccc(N2CCN(c3ccc(OC(F)(F)F)cc3)C2=O)c1` [Compound 38, 3-[2-Oxo-3-(4-trifluoro-methoxy-phenyl)-imidazolidin-1-yl]-benzoic acid], the Activity entry was “*****”. Then `O=C(O)c1cccc(N2CCN(c3ccc(OC(F)F)cc3)C2=O)c1` [Compound 39, 3-[3-(4-Difluoromethoxy-phenyl)-2-oxo-imidazolidin-1-yl]-benzoic acid], with “*****”. Consider `CC(C)Oc1ccc(N2CCN(c3cccc(C(=O)O)c3)C2=O)cc1` [Compound 40, 3-[3-(4-Isopropoxy-phenyl)-2-oxo-imidazolidin-1-yl]-benzoic acid], for which the Activity result is recorded as “*****”. `O=C(O)c1cccc(N2CCN(c3ccc4c(c3)OCO4)C2=O)c1` [Compound 41, 3-(3-Benzo[1,3]dioxol-5-yl-2-oxo-imidazolidin-1-yl)-benzoic acid]: the Activity entry is on record as “*****”.

In the case of `O=C(O)c1cccc(N2CCN(c3ccc4c(c3)OCCO4)C2=O)c1` [Compound 42, 3-[3-(2,3-Dihydro-benzo[1,4]dioxin-6-yl)-2-oxo-imidazolidin-1-yl]-benzoic acid], the Activity entry was “*****”. `O=C(O)c1cccc(N2CCN(c3ccc(I)cc3)C2=O)c1` [Compound 43, 3-[3-(4-Iodo-phenyl)-2-oxo-imidazolidin-1-yl]-benzoic acid]: the Activity result is recorded as “*****”. To `O=C(O)c1cccc(N2CCN(c3ccc(N4CCCC4)cc3)C2=O)c1` [Compound 44, 3-[2-Oxo-3-(4-pyrrolidin-1-yl-phenyl)-imidazolidin-1-yl]-benzoic acid] belongs “****”. To `O=C(O)c1cccc(N2CCN(c3ccc(C(F)(F)F)cc3)C2=O)c1` [Compound 45, 3-[2-Oxo-3-(4-trifluoromethyl-phenyl)-imidazolidin-1-yl]-benzoic acid] belongs “*****”.

Consider `O=C(O)c1cccc(N2CCN(c3ccc(-n4cccc4)cc3)C2=O)c1` [Compound 46, 3-[2-Oxo-3-(4-pyrrol-1-yl-phenyl)-imidazolidin-1-yl]-benzoic acid], for which the Activity result is on record as “*****”.

For `CN(C)c1ccc(N2CCN(c3cccc(C(=O)O)c3)C2=O)cc1` [Compound 47, 3-[3-(4-Dimethylamino-phenyl)-2-oxo-imidazolidin-1-yl]-benzoic acid], the Activity result is “*****”. As to `Cc1ccc(N2CCN(c3cccc(C(=O)O)c3)C2=O)cc1` [Compound 48, 3-(2-Oxo-3-p-tolyl-imidazolidin-1-yl)-benzoic acid], the Activity entry was “*****”. For the molecule `COc1ccc(N2CCN(c3cccc(C(=O)O)c3)C2=O)cc1` [Compound 49, 3-[3-(4-Methoxy-phenyl)-2-oxo-imidazolidin-1-yl]-benzoic acid], the Activity result is listed as “****”. `O=C(O)c1cccc(N2CCN(c3ccc4c(c3)OC(F)(F)O4)C2=O)c1` [Compound 50, 3-[3-(2,2-Difluoro-benzo[1,3]dioxol-5-yl)-2-oxo-imidazolidin-1-yl]-benzoic acid]: the Activity entry is “****”.

For the molecule `O=C(O)c1cccc(N2CCN(c3ccc4c(c3)OC(F)(F)C(F)(F)O4)C2=O)c1` [Compound 51, 3-[2-Oxo-3-(2,2,3,3-tetrafluoro-2,3-dihydro-benzo[1,4]dioxin-6-yl)-imidazolidin-1-yl]-benzoic acid], the Activity result was “*****”. For `COc1ccc(C(=O)O)cc1N1CCN(c2ccc(C(F)(F)F)cc2)C1=O` [Compound 52, 4-Methoxy-3-[2-oxo-3-(4-trifluoromethyl-phenyl)-imidazolidin-1-yl]-benzoic acid], the Activity entry is on record as “*”. To `O=C(O)c1cc(N2CCN(c3ccc(C(F)(F)F)cc3)C2=O)ccc1F` [Compound 53, 2-Fluoro-5-[2-oxo-3-(4-trifluoromethyl-phenyl)-imidazolidin-1-yl]-benzoic acid] belongs “****”. On to `O=C(O)c1cc(N2CCN(c3ccc(C(F)(F)F)cc3)C2=O)ccc1Cl` [Compound 54, 2-Chloro-5-[2-oxo-3-(4-trifluoromethyl-phenyl)-imidazolidin-1-yl]-benzoic acid], for which the Activity entry was “****”.

With `O=C(O)c1ccc(F)c(N2CCN(c3ccc(C(F)(F)F)cc3)C2=O)c1` [Compound 55, 4-Fluoro-3-[2-oxo-3-(4-trifluoromethyl-phenyl)-imidazolidin-1-yl]-benzoic acid], the Activity entry was “*”. Then `O=C(O)c1cccc(N2CCN(c3ccc(N4CCN(c5ccccc5)CC4)cc3)C2=O)c1` [Compound 56, 3-{2-Oxo-3-[4-(4-phenyl-piperazin-1-yl)-phenyl]-imidazolidin-1-yl}-benzoic acid], with “*”; and `COc1ccc(N2CCN(c3ccc(C(F)(F)F)cc3)C2=O)cc1C(=O)O` [Compound 57, 2-Methoxy-5-[2-oxo-3-(4-trifluoromethyl-phenyl)-imidazolidin-1-yl]-benzoic acid], with “*”.
